Measured values: the NIST ThermoML archive (doi:10.1021/acs.jced.8b00070)
± gives the expanded uncertainty stated by the source.

Conditions: 101.3 kPa, Liquid, Vibrating tube method

mass density (323.15 K): 988 ± 0.2 kg/m3
mass density (328.15 K): 985.7 ± 0.2 kg/m3
mass density (333.15 K): 983.2 ± 0.2 kg/m3
SMILES: O [water]
